# Columns and labels:
# Format in all cases: cell-based
# EAAT2 = target: T1, EAAT2 (Homo sapiens, UniProt P43004); assay: Electrophysiology specificity experiment in transfected HEK293 cells, EAAT2; conditions: apparent Ki, HEK293, internal solution 10 mM glutamate, mean ± SD; read-out: Ki EAAT2
# T1 construct: expressed in transfected cells; host or cells: HEK293 (ATCC CRL-11268), transient transfection
# Method: (§1) Human embryonic kidney 293 (HEK293, ATCC CRL-11268) cells were cultured in DMEM media supplemented with 10% (v v) fetal bovine serum (FBS), 2 mM glutamine, 1% penicillin streptomycin solution, 1 mM sodium pyruvate and non-essential amino acids. Cells were maintained at 37° C. in a fully humidified atmosphere containing 5% CO2. rASCT2, hASCT2, hASCT1, EAAT1, EAAT2, EAAC1, EAAT5 and YFP complementary DNAs were each used to transiently transfect HEK293 using POLYPLUS Jet-prime transfection reagent. Cells were analyzed using electrophysiological techniques 24-40 hours after transfection.
# (§2) Stock solutions of inhibitor was prepared in dimethyl sulfoxide (DMSO) up to 100 mM. Dilutions to working concentrations were made using external buffer. […] For rASCT2, hASCT2 and hASCT1, external buffer contained 140 mM NaCl, 2 mM MgCl2, 2 mM CaCl2), and 10 mM HEPES, pH 7.40 while internal pipette solution comprised of 130 mM NaSCN, 2 mM MgCl2, 10 mM EGTA, 10 mM HEPES and 10 mM alanine, pH 7.40. For specificity experiments with EAAT1, EAAT2, EAAC1 and EAAT5, internal solution contained 10 mM glutamate instead of alanine. Compounds were applied to HEK293 cells expressing DNA of interest suspended from a current recording electrode in whole cell configuration through a rapid solution exchange device. Cells are immersed in external buffer bath used to dissolve the inhibitors. The open pipette resistance was between 3 and 6 MΩ. Series resistance was not compensated in these experiments due to relatively small currents. Currents traces were recorded using an Adams and List EPC7 amplifier and digitized using a Molecular Devices Digidata A/D converter.
# (§3) Linear and nonlinear curve fitting of the experimental data were analyzed using MicroCal Origin software. Nonlinear dose-response relationships were fitted with a Michaelis-Menten-like equation to obtain apparent Ki values in the absence of substrate (see TABLE 2 for Ki values). The figures show representative current traces and dose-response curves for hACST2 and rASCT2, used to obtain Ki values in TABLE 2 for compound SN 40. At least four experiments were performed with at least three different cells. Error bars in all graphs, e.g., in FIG. 1B and FIG. 1C and tables (Ki values) represent mean±SD.
# hASCT1 = target: T2, hASCT1 (Homo sapiens, UniProt P43007); assay: Electrophysiology (whole-cell current recording) of transfected HEK293 cells, hASCT1; conditions: apparent Ki in the absence of substrate, HEK293, mean ± SD; read-out: Ki hASCT1
# T2 construct: expressed in transfected cells; host or cells: HEK293 (ATCC CRL-11268), transient transfection
# T2 sequence (P43007 1-532): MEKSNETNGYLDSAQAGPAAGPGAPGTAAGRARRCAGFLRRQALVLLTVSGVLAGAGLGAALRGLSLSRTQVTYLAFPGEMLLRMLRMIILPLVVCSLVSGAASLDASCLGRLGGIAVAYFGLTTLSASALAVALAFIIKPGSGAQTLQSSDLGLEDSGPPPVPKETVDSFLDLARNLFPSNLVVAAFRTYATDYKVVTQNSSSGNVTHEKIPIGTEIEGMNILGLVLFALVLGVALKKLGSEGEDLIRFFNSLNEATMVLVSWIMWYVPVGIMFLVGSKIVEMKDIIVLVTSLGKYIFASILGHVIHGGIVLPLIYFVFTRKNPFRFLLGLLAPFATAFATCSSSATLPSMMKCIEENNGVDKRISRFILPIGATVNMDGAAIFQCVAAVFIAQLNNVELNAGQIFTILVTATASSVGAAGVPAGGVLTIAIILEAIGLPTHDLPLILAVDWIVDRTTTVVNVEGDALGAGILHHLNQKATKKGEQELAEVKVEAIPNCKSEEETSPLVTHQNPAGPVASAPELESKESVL
# Method: as §1, §2, §3
# rASCT2 = target: T3, rASCT2 (Rattus norvegicus, UniProt D3ZJ25); assay: Electrophysiology (whole-cell current recording) of transfected HEK293 cells, rASCT2; conditions: apparent Ki in the absence of substrate, HEK293, mean ± SD; read-out: Ki rASCT2
# T3 construct: expressed in transfected cells; host or cells: HEK293 (ATCC CRL-11268), transient transfection
# T3 sequence (D3ZJ25 1-555): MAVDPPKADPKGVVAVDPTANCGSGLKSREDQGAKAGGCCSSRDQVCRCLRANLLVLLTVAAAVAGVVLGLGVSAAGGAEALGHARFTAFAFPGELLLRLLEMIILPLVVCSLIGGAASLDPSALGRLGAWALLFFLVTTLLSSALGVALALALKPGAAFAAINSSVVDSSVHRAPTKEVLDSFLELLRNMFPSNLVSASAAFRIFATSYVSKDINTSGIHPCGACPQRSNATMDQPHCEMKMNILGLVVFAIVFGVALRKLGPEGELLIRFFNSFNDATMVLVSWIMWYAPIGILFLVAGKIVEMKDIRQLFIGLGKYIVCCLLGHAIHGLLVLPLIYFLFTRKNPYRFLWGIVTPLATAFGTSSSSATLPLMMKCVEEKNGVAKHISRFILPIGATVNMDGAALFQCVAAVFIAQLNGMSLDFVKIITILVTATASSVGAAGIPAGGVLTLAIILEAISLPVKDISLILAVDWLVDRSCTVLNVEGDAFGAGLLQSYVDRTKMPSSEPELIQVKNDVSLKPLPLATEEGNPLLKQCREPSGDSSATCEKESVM
# Method: as §1, §2, §3
# hASCT2 = target: T4, hASCT2 (Homo sapiens, UniProt Q15758); assay: Electrophysiology (whole-cell current recording) of transfected HEK293 cells, hASCT2; conditions: apparent Ki in the absence of substrate, HEK293, mean ± SD; read-out: Ki hASCT2
# T4 construct: expressed in transfected cells; host or cells: HEK293 (ATCC CRL-11268), transient transfection
# T4 sequence (Q15758 1-541): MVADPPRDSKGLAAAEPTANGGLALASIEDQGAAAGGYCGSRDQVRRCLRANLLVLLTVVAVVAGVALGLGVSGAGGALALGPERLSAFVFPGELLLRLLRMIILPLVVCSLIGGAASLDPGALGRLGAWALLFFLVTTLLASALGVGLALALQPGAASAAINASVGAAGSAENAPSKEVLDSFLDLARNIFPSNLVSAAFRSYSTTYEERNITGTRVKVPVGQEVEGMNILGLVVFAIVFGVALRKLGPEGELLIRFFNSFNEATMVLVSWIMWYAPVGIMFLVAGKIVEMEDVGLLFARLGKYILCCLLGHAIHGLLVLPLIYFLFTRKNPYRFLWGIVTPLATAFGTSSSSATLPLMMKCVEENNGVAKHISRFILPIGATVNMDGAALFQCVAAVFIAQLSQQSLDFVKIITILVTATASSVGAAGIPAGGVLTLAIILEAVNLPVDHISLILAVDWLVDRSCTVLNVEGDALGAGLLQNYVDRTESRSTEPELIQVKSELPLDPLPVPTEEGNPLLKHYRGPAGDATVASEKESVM
# Method: as §1, §2, §3
# EAAT5 = target: T5, EAAT5 (Homo sapiens, UniProt O00341); assay: Electrophysiology specificity experiment in transfected HEK293 cells, EAAT5; conditions: apparent Ki, HEK293, internal solution 10 mM glutamate, mean ± SD
# T5 construct: expressed in transfected cells; host or cells: HEK293 (ATCC CRL-11268), transient transfection
# T5 sequence (O00341 whole entry, species assumed): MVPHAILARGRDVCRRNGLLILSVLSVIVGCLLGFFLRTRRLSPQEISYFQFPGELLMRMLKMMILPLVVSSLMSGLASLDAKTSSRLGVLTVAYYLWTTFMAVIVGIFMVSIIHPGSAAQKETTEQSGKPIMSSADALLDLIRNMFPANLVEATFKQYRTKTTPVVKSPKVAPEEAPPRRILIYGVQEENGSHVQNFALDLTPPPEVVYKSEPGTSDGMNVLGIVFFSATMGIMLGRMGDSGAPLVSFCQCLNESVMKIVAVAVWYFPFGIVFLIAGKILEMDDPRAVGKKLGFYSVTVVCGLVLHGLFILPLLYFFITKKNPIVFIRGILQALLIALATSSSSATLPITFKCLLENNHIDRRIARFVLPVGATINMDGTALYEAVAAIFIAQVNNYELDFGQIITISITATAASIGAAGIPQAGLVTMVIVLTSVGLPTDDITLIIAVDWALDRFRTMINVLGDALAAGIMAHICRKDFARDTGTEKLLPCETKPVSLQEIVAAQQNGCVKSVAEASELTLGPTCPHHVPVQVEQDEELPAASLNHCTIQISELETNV
# Method: as §1, §2, §3
# T1 sequence (P43004 whole entry, species assumed): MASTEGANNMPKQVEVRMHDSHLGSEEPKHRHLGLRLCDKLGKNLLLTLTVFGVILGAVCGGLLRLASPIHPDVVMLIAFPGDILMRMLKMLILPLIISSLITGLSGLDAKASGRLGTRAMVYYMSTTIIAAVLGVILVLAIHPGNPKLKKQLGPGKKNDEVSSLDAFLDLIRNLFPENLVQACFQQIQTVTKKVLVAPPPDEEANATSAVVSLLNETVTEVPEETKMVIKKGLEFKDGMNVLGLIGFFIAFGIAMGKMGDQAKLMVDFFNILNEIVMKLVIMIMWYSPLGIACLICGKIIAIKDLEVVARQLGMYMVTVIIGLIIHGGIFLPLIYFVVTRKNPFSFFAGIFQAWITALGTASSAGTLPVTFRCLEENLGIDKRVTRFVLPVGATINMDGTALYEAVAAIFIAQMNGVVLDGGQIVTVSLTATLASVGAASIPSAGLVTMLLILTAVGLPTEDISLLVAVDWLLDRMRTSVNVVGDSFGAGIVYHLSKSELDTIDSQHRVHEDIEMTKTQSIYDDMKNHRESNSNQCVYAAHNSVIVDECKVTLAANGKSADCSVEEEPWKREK
SMILES,Ki (EAAT2),Ki (hASCT1),Ki (rASCT2),Ki (hASCT2),Ki (EAAT5)
O=C(O[C@@H]1CN[C@H](C(=O)O)C1)c1ccc(-c2ccccc2)cc1 [SN 05],7.25 ± 1.5 µM,2.77 ± 0.1 µM,0.73 ± 0.1 µM,0.87 ± 0.1 µM,2.22 ± 0.5 µM
O=C(O[C@@H]1CN[C@H](C(=O)O)C1)c1ccc(-c2ccc(C(F)(F)F)cc2)cc1 [SN 09],0.97 ± 0.1 µM,0.44 ± 0.1 µM,0.27 ± 0.05 µM,1.05 ± 0.2 µM,1.09 ± 0.2 µM
Cc1ccccc1-c1ccc(C(=O)O[C@@H]2CN[C@H](C(=O)O)C2)cc1C [SN 11],3.14 ± 0.5 µM,8.2 ± 0.8 µM,0.87 ± 0.1 µM,9.13 ± 1.7 µM,1.17 ± 0.1 µM
Cc1ccccc1-c1ccc(C(=O)O[C@@H]2CN[C@H](C(=O)O)C2)cc1 [SN 10],1.3 ± 0.1 µM,1.33 ± 0.3 µM,0.97 ± 0.1 µM,1.12 ± 0.1 µM,2.5 ± 0.9 µM
O=C(O[C@@H]1CN[C@H](C(=O)O)C1)c1ccc(-c2ccc(F)cc2)cc1 [SN 08],1.29 ± 0.3 µM,0.9 ± 0.1 µM,0.65 ± 0.04 µM,0.74 ± 0.1 µM,2.4 ± 0.7 µM
O=C(O[C@@H]1CN[C@H](C(=O)O)C1)c1ccc(-c2ccccc2)nc1 [SN 19],7.95 ± 1.1 µM,4.37 ± 0.8 µM,0.89 ± 0.2 µM,7.93 ± 0.9 µM,–
N[C@@H](COC(=O)c1ccc(NC(=O)c2ccccc2)cc1)C(=O)O [SN 25],11 ± 1.3 µM,11.6 ± 1.8 µM,4.4 ± 1.5 µM,22.6 ± 3.7 µM,12.3 ± 3.2 µM
O=C(O)[C@@H]1C[C@H](OCc2ccc(-c3ccccc3)cc2)CN1 [SN 39],2.09 ± 0.5 µM,2.82 ± 0.1 µM,1.13 ± 0.1 µM,0.98 ± 0.1 µM,1.41 ± 0.3 µM

# From patent US20230416199A1, “INHIBITORS OF AMINO ACID TRANSPORT” (ICAHN SCHOOL OF MEDICINE AT MOUNT SINAI, priority 2020, published 2023)
